pIC50: −log10 of the molar value.
What was measured:
[1] = test system: chronic constriction injury model in the rat; assay: Bennett model of neuropathic pain in rats (cold allodynia); format: in vivo; conditions: AUD of cold allodynia as percent inhibition of vehicle control
Procedure: Effects on neuropathic pain are tested in the chronic constriction injury model in the rat (Bennett, G. J. and Xie, Y. K., A peripheral mononeuropathy in rat that produces disorders of pain sensation like those seen in man, Pain, 33 (1988) 87-107). Under pentobarbital anesthesia (Nembutal, 50 mg/kg, i.p.), unilateral multiple ligations are performed on male Sprague-Dawley rats (140-160 g) at the right common sciatic nerve. The sciatic nerve is exposed by blunt dissection at the level of mid-thigh and four loose ligatures (5-0 chromic catgut) are placed around the nerve taking care not to interrupt the epineural circulation. After operation, animals are allowed to recover for one week. Animals develop a cold allodynia which is stable for at least five weeks. […] The animals, randomly assigned to groups of 10 for each test dose and vehicle, are observed for periods of 2 minutes before and after application of test compound and the number of brisk withdrawal reactions is counted. […] Percent maximal possible effect (% MPE) and standard error of the mean (SEM) of each time point is determined with the pre-test value used as […]. The area under the data (AUD) is calculated for the observation period and expressed as percent inhibition of vehicle control as shown in Table 8. Significance is calculated by paired t-test on the percent AUD values.

[2] = test system: sodium currents of cortical neurons; assay: Inhibition of sodium currents in cortical neurons (whole cell patch clamp); format: cell-based; conditions: embryonic Wistar rat cortical neurons, preconditioning −50 mV (half maximal steady-state condition); read-out: IC50 (Vhalf)
Procedure: Cell Preparation and culturing: cortical neurons were prepared from embryonic Wistar rats (E17-E19). Brains of E17/E19 rats were removed and placed in ice-cold Hank's solution (Hank's solution (Life tech.14170-088)+glucose 30%+Pen-Strep 100× (Life Tech. 15140-122) 100 U-100 μg/ml and Hepes-NaOH 5 mM).
Cortex were isolated, cut in small parts and washed twice with Hank's solution. The solution was removed except 1-2 ml and the tissue was mechanically dissociated. After the mechanical dissociation, 5 ml of complete DMEM (Dulbecco's modified Eagle medium) (Gibco 41966-029)+FBS (Hyclone) 10%+Glutamine (Life Tech. 25030-024) 2 mM+Pen-Strep 100 U-100 μg/ml were added, and cell suspension was centrifuged for 5 min at 1000 rpm. Supernatant was removed and 5 ml of complete Neurobasal medium was added (Neurobasal medium (Life tech. 21103-049)+B27 (Life tech. 17504-044) 2%+Glutamine 2 mM+Pen-Strep 100 U-100 μg/ml)
Cells were counted and diluted in Neurobasal medium to a concentration of 400000 cells per poly-D-lysine 5 μg/ml treated Petri dish. […]
Whole Cell Patch Clamp Recordings: Experiments on cortical neurons were carried out using standard whole cell patch clamp methods (Hamill et al., 1981). Membrane currents were recorded and filtered at 5 kHz with an Axon Axopatch 200B amplifier and data digitized with an Axon Digidata 1322A (Axon Instruments, CA, USA). […]

[3] = target: T1, recombinant Nav 1.3 channels (Homo sapiens, UniProt Q9NY46); assay: Patch clamp studies of sodium currents inhibition in HEK293 cells; format: cell-based; conditions: tonic block, preconditioning −50 mV (half maximal steady-state inactivated condition); read-out: IC50 (Vhalf)
T1 construct: expressed in transfected cells; host or cells: HEK293 cells
T1 sequence (Q9NY46 whole entry): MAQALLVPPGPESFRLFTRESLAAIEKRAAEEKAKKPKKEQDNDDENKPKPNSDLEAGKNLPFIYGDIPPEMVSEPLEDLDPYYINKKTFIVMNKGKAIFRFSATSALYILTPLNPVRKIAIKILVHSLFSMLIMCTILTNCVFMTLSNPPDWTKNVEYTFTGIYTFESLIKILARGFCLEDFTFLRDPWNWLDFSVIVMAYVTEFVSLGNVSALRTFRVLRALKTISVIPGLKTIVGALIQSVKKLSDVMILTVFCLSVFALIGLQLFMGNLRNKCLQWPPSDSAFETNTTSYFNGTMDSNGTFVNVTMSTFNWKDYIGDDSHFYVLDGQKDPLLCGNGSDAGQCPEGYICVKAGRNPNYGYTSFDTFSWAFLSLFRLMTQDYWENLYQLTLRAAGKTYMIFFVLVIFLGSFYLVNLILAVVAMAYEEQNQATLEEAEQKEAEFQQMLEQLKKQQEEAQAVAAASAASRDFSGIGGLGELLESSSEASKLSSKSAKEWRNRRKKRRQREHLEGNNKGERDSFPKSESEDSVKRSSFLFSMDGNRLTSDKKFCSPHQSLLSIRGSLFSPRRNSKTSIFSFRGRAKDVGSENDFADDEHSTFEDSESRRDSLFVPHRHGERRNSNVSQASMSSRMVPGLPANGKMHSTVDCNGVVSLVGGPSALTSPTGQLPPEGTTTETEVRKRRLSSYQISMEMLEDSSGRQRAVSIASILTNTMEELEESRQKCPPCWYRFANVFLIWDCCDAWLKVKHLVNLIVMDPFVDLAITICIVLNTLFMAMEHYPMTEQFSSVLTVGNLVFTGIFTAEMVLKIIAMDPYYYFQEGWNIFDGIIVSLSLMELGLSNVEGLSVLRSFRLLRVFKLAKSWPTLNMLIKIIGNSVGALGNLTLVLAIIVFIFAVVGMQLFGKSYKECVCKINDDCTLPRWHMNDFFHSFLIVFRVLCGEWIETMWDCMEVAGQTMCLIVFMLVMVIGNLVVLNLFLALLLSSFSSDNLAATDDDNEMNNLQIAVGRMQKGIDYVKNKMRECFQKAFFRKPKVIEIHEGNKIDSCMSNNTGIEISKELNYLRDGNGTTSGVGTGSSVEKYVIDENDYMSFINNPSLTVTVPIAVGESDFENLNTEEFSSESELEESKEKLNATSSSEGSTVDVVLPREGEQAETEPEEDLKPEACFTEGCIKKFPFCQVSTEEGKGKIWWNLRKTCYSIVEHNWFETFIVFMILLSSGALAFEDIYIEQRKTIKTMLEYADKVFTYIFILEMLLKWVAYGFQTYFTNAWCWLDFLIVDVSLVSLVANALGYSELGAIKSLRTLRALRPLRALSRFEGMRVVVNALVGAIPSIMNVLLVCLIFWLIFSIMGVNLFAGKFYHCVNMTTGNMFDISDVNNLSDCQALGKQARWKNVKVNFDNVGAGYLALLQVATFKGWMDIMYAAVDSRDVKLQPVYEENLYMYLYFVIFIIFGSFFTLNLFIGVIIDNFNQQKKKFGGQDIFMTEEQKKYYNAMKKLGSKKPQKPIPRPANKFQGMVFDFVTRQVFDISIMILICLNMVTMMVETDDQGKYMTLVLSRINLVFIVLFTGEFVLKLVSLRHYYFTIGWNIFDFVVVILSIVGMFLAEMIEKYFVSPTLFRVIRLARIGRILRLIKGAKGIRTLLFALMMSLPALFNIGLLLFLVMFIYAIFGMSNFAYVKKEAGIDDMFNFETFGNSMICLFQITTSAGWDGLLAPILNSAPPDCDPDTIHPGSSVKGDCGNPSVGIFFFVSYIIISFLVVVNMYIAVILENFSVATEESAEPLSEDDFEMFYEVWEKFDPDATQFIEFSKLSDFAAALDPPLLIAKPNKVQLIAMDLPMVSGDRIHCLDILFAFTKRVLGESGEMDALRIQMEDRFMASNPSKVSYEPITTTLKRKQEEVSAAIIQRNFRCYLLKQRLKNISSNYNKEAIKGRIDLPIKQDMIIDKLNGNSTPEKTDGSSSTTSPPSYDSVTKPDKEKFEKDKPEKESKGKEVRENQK
Procedure: Cells and methods: Functional inhibition of the sodium currents was studied using whole cell patch clamp methods (Hamill O. P., Marty A., Neher E., Sakmann B., Sigworth F. J., Pflugers Arch. (1981) 391 (2): 85-100) on HEK293 cells expressing recombinant Nav 1.3 channels. Membrane currents were recorded as described in the example above.
For sodium current recording control bath solution contained (mM): NaCl (80), Choline chloride (38), CaCl2 (1.3), MgCl2 (2), KCl (2), CdCl2 (0.4), NiCl2 (0.3), TEA.Cl (20), Hepes (10), Glucose (10). Internal pipette solution consisted of (mM): EGTA (10), NaCl (10), CaCl2 (1.3), MgCl2 (2), Hepes (10), CsF (130), MgATP (1).
Compounds were dissolved as 20 mM stock solutions in DMSO and then diluted to the final concentration in the external solutions.
Voltage protocols and data analyses: A two-step protocol was used to determine the voltage dependence of the block:
sodium current was activated by a 30 ms step pulse to 10 mV (test pulse) from a 2000 ms preconditioning potential of −100 mV (resting condition) or −50 mV (half maximal steady-state inactivated condition), respectively.
The amplitude of sodium current peaks evoked by the respective test pulses at a frequency of 0.06 Hz were measured before and after exposure to the test substance. Tonic block of currents was calculated as the difference between the Nacurrent peak measured at the end of a stabilization period in the control external bath solution and the current peak measured at the end of test substance perfusion period (when steady state is reached) divided by control peaks. Drug concentration-inhibition curves were obtained by plotting tonic blocks versus drug concentrations. Dose-response curves were fitted to the tonic block data, according to the logistic equation: y=A2+(A1−A2)/[1+(x/IC50)^p]. A1 and A2 are fixed values of 0 and 1 corresponding to 0 and 100% current inhibition, x is the drug concentration, IC50 is the drug concentration resulting in 50% current inhibition and p is the corresponding slope factor.

Compound: CCCCOc1cccc(CCN(CC(=O)N(C)C)CC2CCOC2)c1.Cl (racemic) [Example 96, 2-[[2-(3-Butoxy-phenyl)-ethyl]-(tetrahydrofuran-3-ylmethyl)amino]-N,N-dimethyl-acetamide hydrochloride]
- Change vs. Control ([1]; 0.1 mg/kg p.o.): 35.7%
- pIC50 [2]: 6.30
- pIC50 [3]: 5.51

Compound: C[C@H](NCc1ccc(OCc2ccccc2F)cc1)C(N)=O [ralfinamide, (S)-(+)-2-[4-(2-fluoro-benzyloxy)-benzylamino]-propanamide, reference compound]
- Change vs. Control ([1]; 1.0 mg/kg p.o.): 23.7%
- pIC50 [2]: 5.05
- pIC50 [3]: 4.82

From patent publication US8129427B2, “2-phenylethylamino derivatives as calcium and/or sodium channel modulators” (Newron Pharmaceuticals S.p.A., priority 2005, dated 2012)
